{"source": "patent US20060223811A1", "about": "“Triglycerine depressant composition” (priority 2000, published 2006)", "test_system": "blood triglyceride levels", "test": "Assay of blood triglyceride levels in dogs after 11 days of oral capsule administration (GK-GPO-POD method)", "settings": "serum, relative ratio against averaged pre-dosing level (100), oral capsule once daily, mean of 5 dogs", "key": {"[1]": {"settings": "Table 9, pravastatin 2 mg/kg, pantethine 300 mg/kg"}, "[2]": {"settings": "Table 11, pravastatin 2, riboflavin butyrate 6, d-α-tocopherol acetate 150, ascorbic acid 500 mg/kg"}, "[3]": {"settings": "Table 12, pravastatin 2, d-α-tocopherol acetate 10, ascorbic acid 50 mg/kg"}}, "text": "Beagle dogs aged 5 months were purchased from Covance Research Products Inc. and used after 1 month of quarantine and acclimatisation breeding.\n(3) Preparation Forms for Administration, Methods of Preparing the Formulation, and Method of Stocking the Formulation\nThe calculated amounts of pravastatin or each component of the compositions based on the body weight of each dog were weighed and filled in a gelatin capsule (½ ounce) purchased from TORPAC Inc. Capsules filled with pravastatin were stocked in a refrigerator and, those filled with combination drugs stocked at room temperature until use.\nThe combination drugs were filled in identical gelatin capsules.\n(4) Route of Administration and Administration Period\nPravastatin or combination drug capsules were forcibly orally administered to each of the test animals once daily between 9:00 and 12:30. Animals were fasted for 2 or 3 hr prior to administration of the capsules.\nThe administration period was 11 successive days.\n(5) Preparation of Test Samples and Procedures\nBlood (10 mL) was collected from the superficial radial vein 14 and 7 days prior to capsule administration (2 and 1 weeks prior to administration) and 4, 8, and 12 days after administration of the capsule. Animals were fasted for approximately 18 hr prior to blood collection. Collected blood was placed in a test tube, left at room temperature for 0.5-1 hr, before being centrifuged (3,000 rpm for 10 min). The obtained serum was used for assays of blood triglyceride levels according to GK-GPO-POD methods.\nA full automatic analyzer (Monarch, Instrumentation Laboratory, Inc.) was used for assay of triglycerides.\nThe averaged value in each group was obtained from 5 animals per group."}
{"smiles": "CC[C@H](C)C(=O)O[C@H]1C[C@H](O)C=C2C=C[C@H](C)[C@H](CC[C@@H](O)C[C@@H](O)CC(=O)O)[C@H]21", "note": "[Pravastatin alone, (+)−(3R, 5R)-3,5-dihydroxy-7-[(1S, 2S,6S,8S,8aR)-6-hydroxy-2-methyl-8-[(S)-2-methylbutyryloxy]-1,2,6,7,8,8a-hexahydro-1-naphthyl]heptanoic acid]", "values": [{"measurement": "Blood Triglyceride Levels after administration, 4 days", "setting": "[1]", "value": 108.9}, {"measurement": "Blood Triglyceride Levels after administration, 8 days", "setting": "[1]", "value": 104.0}, {"measurement": "Blood Triglyceride Levels after administration, 12 days", "setting": "[1]", "value": 91.1}, {"measurement": "Blood Triglyceride Levels after administration, 4 days", "setting": "[2]", "value": 108.9}, {"measurement": "Blood Triglyceride Levels after administration, 8 days", "setting": "[2]", "value": 104.0}, {"measurement": "Blood Triglyceride Levels after administration, 12 days", "setting": "[2]", "value": 91.1}, {"measurement": "Blood Triglyceride Levels after administration, 4 days", "setting": "[3]", "value": 108.9}, {"measurement": "Blood Triglyceride Levels after administration, 8 days", "setting": "[3]", "value": 104.0}, {"measurement": "Blood Triglyceride Levels after administration, 12 days", "setting": "[3]", "value": 91.1}]}
